This passage reports Km results from PMC8924551, “Functional Characterization of a Flavone Synthase That Participates in a Kumquat Flavone Metabolon” (Frontiers in Plant Science, 2022).

The assay deals with T1, FcFNSII-2.
T1 construct: microsomes of Saccharomyces cerevisiae WAT11 co-expressing Arabidopsis ATR1 P450 reductase
The assay is described as follows: yeast microsome assay, UPLC-Q-TOF-MS, Michaelis-Menten fit. The assay is classed as biochemical, Fortunella crassifolia. The settings on record: 1 mM NADPH, 100 mM Tris/HCl pH 7.0, 30°C, 1 h; product apigenin.

For the compound `O=C1C[C@@H](c2ccc(O)cc2)Oc2cc(O)cc(O)c21` [naringenin], the Km amounted to 3.77 µM.
